Several values for one entry are separate records, joined by “and”; a condition that tells them apart may be missing. Equal values may be shown once.

The experiment concerns the target T1, FGFR1 IIIc (Homo sapiens, UniProt P11362).
T1 construct: expressed in transfected cells; host or cells: Cos-1
In words: Cell FGFR1 (ECHO): inhibition of transiently expressed FGFR1 IIIc phosphorylation in Cos-1 cells. Type of experiment: cell-based. The settings on record: Cos-1 cells transiently expressing FGFR1 IIIc, 1 hour incubation; read-out: IC50 (inhibition of phosphorylated FGFR1). The text has this: Cell FGFR1 (ECHO)—Cell Based Inhibition of Transiently Expressed FGFR1 IIIc Phosphorylation via use of ECHO Technology (Measured using Phospho-Specific Primary and Fluorescent Secondary Antibodies).
This assay is designed to detect inhibitors of transiently expressed FGFR1 phosphorylation by antibody staining of fixed cells detected using ArrayScan technology.
Cos-1 cells were routinely passaged in DMEM (Gibco BRL, 41966) plus 3% foetal calf serum (FCS), 1% L-glutamine (Gibco BRL, 25030) to a confluence of 80%. To undertake the assay, Cos-1 cells were harvested at 90-95% confluence for cell transfection. For each 96-well plate, 24 μl Lipofectamine 2000 was added to 809 ul OptiMEM and incubated at room temperature for 5 minutes. For each 96 well plate, 20 ug 3′ FLAG tagged FGFR1/pcDNA3.1 (In-house clone15, MSD 4793) was diluted with OptiMEM to a total volume of 833 μl. Equal volumes of DNA and Lipofectamine 2000 were combined (DNA: Lipid=1:1.2 ratio) and incubated at room temperature for 20 minutes.
The harvested Cos-1 cells are counted using a coulter counter and diluted further with 1% FCS/DMEM to 2.5×10^5 cells/ml. For each 96-well, 8.33 ml cells were required. […]
Media was removed from the wells using vacuum aspiration; cells were fixed by adding 50 μl of 100% methanol to each well and incubated at room temperature for 20 minutes. […] The plates were read on an Arrayscan (Cellomics). […]

T1 sequence (P11362 22-822): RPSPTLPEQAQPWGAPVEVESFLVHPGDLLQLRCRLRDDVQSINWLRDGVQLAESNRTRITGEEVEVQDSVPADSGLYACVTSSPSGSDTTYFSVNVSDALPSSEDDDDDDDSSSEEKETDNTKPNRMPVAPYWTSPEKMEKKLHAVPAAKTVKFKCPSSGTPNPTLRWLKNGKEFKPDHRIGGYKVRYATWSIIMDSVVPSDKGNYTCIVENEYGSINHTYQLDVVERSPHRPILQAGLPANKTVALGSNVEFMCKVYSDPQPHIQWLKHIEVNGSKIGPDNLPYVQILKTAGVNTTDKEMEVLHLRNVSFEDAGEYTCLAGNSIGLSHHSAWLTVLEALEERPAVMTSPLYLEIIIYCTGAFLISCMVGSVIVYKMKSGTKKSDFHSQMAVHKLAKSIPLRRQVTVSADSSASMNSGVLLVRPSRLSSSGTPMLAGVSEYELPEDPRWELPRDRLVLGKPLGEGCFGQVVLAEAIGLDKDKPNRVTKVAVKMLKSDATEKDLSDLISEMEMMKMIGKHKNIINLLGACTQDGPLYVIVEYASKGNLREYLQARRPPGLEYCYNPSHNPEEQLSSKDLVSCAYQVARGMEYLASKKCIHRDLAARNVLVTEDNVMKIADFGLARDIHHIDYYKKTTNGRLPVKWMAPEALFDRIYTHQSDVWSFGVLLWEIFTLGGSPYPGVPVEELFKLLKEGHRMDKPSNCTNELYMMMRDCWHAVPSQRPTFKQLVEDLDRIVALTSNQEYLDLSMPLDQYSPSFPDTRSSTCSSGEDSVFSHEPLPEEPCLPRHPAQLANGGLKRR

Turning to `COc1cc(CCc2cc(NC(=O)c3ccc(N4CCN(C)[C@H](C)C4)cc3)[nH]n2)cc(OC)c1` [Example 1b, (R)—N-(3-(3,5-Dimethoxyphenethyl)-1H-pyrazol-5-yl)-4-(3,4-dimethylpiperazin-1-yl)benzamide], the concentration for half-maximal inhibition (IC50) was < 10 nM and 1.1 nM and 2.2 nM and 4.8 nM.

As usually defined, the IC50 is the point on the concentration scale where inhibition reaches its midpoint.

For the origin of these results see patent US20090318468A1, “PYRAZOLE COMPOUNDS 436” (AstraZeneca AB, priority 2008, published 2009).
